Experimental data taken from US20120184536A1, “COMPOSITIONS COMPRISING SPECIFIC UGT INHIBITORS AND METHODS OF USE THEREOF” (The Board of Trustees of the University of Arkansas, priority 2009, published 2012).
Where two headings read alike, the source gives them in different places.

Legend:
UGT1A10 [1] = target: T1, UGT1A10 (Homo sapiens, UniProt Q9HAW8); test: Ki assays / kinetics and inhibition type, UGT1A10 (Example 2); conditions: UGT1A10, Example 2; for Inhibition Type (UDP-GlcUA): UDP-GlcUA varied
T1 sequence (Q9HAW8 26-530): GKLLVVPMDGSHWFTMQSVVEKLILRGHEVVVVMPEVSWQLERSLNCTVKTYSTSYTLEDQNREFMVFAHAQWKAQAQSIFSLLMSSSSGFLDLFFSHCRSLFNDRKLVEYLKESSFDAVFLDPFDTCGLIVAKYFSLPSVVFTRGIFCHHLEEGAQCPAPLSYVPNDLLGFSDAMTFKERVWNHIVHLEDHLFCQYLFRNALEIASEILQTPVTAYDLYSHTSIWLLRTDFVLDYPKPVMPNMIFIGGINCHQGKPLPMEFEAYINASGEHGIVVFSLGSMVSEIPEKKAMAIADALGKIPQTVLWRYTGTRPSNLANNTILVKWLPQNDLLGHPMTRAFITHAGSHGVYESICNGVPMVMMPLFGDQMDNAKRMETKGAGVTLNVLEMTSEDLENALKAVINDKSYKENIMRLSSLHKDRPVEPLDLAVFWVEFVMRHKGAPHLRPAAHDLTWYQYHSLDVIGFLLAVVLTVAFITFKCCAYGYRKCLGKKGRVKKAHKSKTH
Experimental: Recombinant UGT Isoform Incubations—Recombinant human UGT1A10 and it mutants were produced in baculovirus-infected insect cells as previously described (6, 7). Synthesis of inhibitors was described previously (2). For inhibition assays, UGT recombinant membrane protein (5 μg) was incubated in reaction buffer ([…] Tris-HCl (pH 7.4)/5 mM MgCl2/5 mM saccharolactone) and 2% DMSO with substrate, inhibitor and co-substrate, UDP-GlcUA, in a total volume of 30 μl. Substrates were added in DMSO, and controls were run with each assay. No additional detergents or other activators were used in the incubations. Reactions were started by the addition of co-substrate and incubated at 37° C. (90 min for 8-hydroxywarfarin; 30 min for 4-MU; 30 min for E2). […] Reactions were stopped by addition of 40 μl of ethanol, and all incubations were performed in duplicate.
TLC Analysis—For inhibition assays using 4-MU, E2, and 8-OH warfarin as substrates, aliquots (60 μl) of each sample were analyzed using thin layer chromatography (TLC) as described previously (3).
Each sample was centrifuged at 14,000 rpm for 8 min to spin down the protein, and 60 μl of the supernatant was analyzed by HPLC as described previously (8).

UGT1A10 [2] = target: T1, UGT1A10; test: IC50 assays, inhibition of UGT1A10 glucuronidation (Example 1); format: biochemical; set-up: His; made in house; host or cells: baculovirus-infected Sf9 insect cells
Source text: Synthesis of inhibitors was described previously (2).

UGT2B7 [3] = target: T2, UGT2B7 (Homo sapiens, UniProt P16662); test: Ki assays / kinetics and inhibition type, UGT2B7 (Example 1); conditions: UGT2B7
T2 sequence (P16662 24-529): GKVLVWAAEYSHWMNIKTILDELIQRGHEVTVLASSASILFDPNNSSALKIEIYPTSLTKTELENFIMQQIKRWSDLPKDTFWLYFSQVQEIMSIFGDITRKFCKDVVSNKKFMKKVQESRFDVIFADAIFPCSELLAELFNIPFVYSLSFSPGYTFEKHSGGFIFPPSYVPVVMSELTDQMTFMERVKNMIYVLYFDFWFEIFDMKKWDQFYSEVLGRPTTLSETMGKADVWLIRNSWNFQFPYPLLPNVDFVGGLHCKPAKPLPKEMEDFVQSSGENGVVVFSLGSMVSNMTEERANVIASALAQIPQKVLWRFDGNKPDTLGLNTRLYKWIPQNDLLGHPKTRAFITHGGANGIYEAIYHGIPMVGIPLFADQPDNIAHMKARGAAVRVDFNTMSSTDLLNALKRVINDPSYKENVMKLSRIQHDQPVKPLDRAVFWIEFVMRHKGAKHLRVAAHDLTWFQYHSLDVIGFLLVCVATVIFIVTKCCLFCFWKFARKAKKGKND
Experimental: (§1) Recombinant UGT Isoform Incubations—Recombinant human UGT2B7 was produced in HEK239 cells as previously described (6). UGT1A10 was produced as a His-tagged protein in baculovirus-infected Sf9 insect cells as previously described (7, 8). […] For inhibition assays, recombinant UGT membrane protein was incubated in reaction buffer with substrate, inhibitor, and co-substrate as previously described (6, 9).
(§2) Ki assays—UGT2B7 or 1A10 were incubated with a range of at least four different concentrations of inhibitor using varying concentrations of substrate (Ki(substrate)) with a fixed saturating concentration of cosubstrate or with varying concentrations of co-substrate (Ki(UDP-GlcUA)) and a fixed saturating concentration of substrate (FIG. 4).
(§3) The results of these experiments were analyzed and apparent kinetic and inhibition parameters were determined using Prism 4 software (GraphPad, San Diego, Calif.) and DynaFit (BioKin, Watertown, Mass.). TLC and HPLC Analysis—For inhibition assays using all substrates other than 7-OH-warfarin, aliquots (60 μl) of each incubation were analyzed using thin layer chromatography (TLC) as previously described (3). For inhibition assays using 7-OH-warfarin as a substrate, samples were analyzed using HPLC as described previously (10). Primary standards for the 7-OH-warfarin glucuronide were not available; therefore, product concentrations were estimated using the external standard response for the 7-OH-warfarin substrate.

UGT2B7 [4] = target: T2, UGT2B7; test: IC50 assays, inhibition of UGT2B7 glucuronidation (Example 1)
Experimental: Recombinant UGT Isoform Incubations—Recombinant human UGT2B7 was produced in HEK239 cells as previously described (6). […] For inhibition assays, recombinant UGT membrane protein was incubated in reaction buffer with substrate, inhibitor, and co-substrate as previously described (6, 9).
IC50 assays—UGT2B7 or 1A10 were incubated with fixed concentrations of each substrate and co-substrate and increasing concentrations of inhibitor.
as §3

UGT1A10 [5] = target: T1, UGT1A10; format: biochemical; set-up: His; made in house; host or cells: baculovirus-infected Sf9 insect cells
UGT1A10 [6] = target: T1, UGT1A10; test: Ki assays / kinetics and inhibition type, UGT1A10 (Example 1); conditions: for Inhibition Type (UDP-GlcUA): UDP-GlcUA varied
Experimental: as §1, §2, §3

CCCCCCCCCC(=O)NC(COC(=O)NS(=O)(=O)OCC1OC(n2ccc(=O)[nH]c2=O)C(O)C1O)Cc1ccccc1 (stereo not drawn) [PP55B]
Inhibition Type (Substrate) (UGT1A10 [1]; 4-MU varied): Competitive | Inhibition Type (Substrate) (UGT1A10 [1]; 7-OH warfarin varied): Competitive | Inhibition Type (Substrate) (UGT1A10 [1]; 8-OH warfarin varied): Competitive | Inhibition Type (UDP-GlcUA) (UGT1A10 [1]; 4-MU): Competitive | Inhibition Type (UDP-GlcUA) (UGT1A10 [1]; 7-OH warfarin 3 mM): Mixed | Inhibition Type (UDP-GlcUA) (UGT1A10 [1]; 8-OH warfarin): Competitive | Inhibition Type (UDP-GlcUA) (UGT1A10 [1]; E2 1 mM): Mixed | IC50 (UGT1A10 [2]; 4-MU, read-out: IC50 (Substrate)): 8 ± 1 µM | IC50 (UGT1A10 [2]; 7-OH warfarin, read-out: IC50 (Substrate)): 11 ± 2 µM | IC50 (UGT1A10 [2]; 8-OH warfarin, read-out: IC50 (Substrate)): 35 ± 4 µM | IC50 (UGT1A10 [2]; E2, estimation, some activation at low concentrations, read-out: IC50 (Substrate)): ~200 µM | IC50 (UGT1A10 [2]; co-substrate ~2 x Km, 4-MU in excess, read-out: IC50 (UDP-GlcUA)): 15 ± 2 µM | IC50 (UGT1A10 [2]; co-substrate ~2 x Km, 7-OH warfarin in excess, read-out: IC50 (UDP-GlcUA)): 4.9 ± 0.2 µM | IC50 (UGT1A10 [2]; co-substrate ~2 x Km, 8-OH warfarin in excess, read-out: IC50 (UDP-GlcUA)): 14 ± 1 µM | IC50 (UGT1A10 [2]; co-substrate ~2 x Km, E2 in excess, read-out: IC50 (UDP-GlcUA)): 39 ± 11 µM | Inhibition Type (UDP-GlcUA) (UGT2B7 [3]; UDP-GlcUA varied, androsterone): Mixed | Inhibition Type (UDP-GlcUA) (UGT2B7 [3]; UDP-GlcUA varied, linoleic acid): Competitive | Inhibition Type (UDP-GlcUA) (UGT2B7 [3]; UDP-GlcUA varied, p-nitrophenol): Mixed | Inhibition Type (Substrate) (UGT2B7 [3]; androsterone varied): Mixed | Inhibition Type (Substrate) (UGT2B7 [3]; linoleic acid varied): Competitive | Inhibition Type (Substrate) (UGT2B7 [3]; p-nitrophenol varied): Competitive | Ki (UGT2B7 [3]; read-out: Kiapp (Substrate), linoleic acid varied): 4.2 µM | Ki (UGT2B7 [3]; read-out: Kiapp (Substrate), p-nitrophenol varied): 7.6 µM | Ki (UGT2B7 [3]; read-out: Kiapp (UDP-GlcUA), UDP-GlcUA varied, linoleic acid): 2.5 µM | Ki (UGT2B7 [3]; read-out: Kiapp (UDP-GlcUA), UDP-GlcUA varied, p-nitrophenol): 2.1 µM | Ki (UGT2B7 [3]; read-out: Ki′app (UDP-GlcUA), UDP-GlcUA varied, p-nitrophenol): 85 µM | IC50 (UGT2B7 [4]; read-out: IC50 (Substrate), linoleic acid ~2 x Km, co-substrate in >5 fold excess): 14 µM | IC50 (UGT2B7 [4]; read-out: IC50 (Substrate), p-nitrophenol (pNP) ~2 x Km, co-substrate in >5 fold excess): 75 ± 10 µM | extent of inhibition of UGT1A10 activity toward 7-OH warfarin (UGT1A10 [5]): did not fully inhibition | Inhibition Type (Substrate) (UGT1A10 [6]; 4-MU varied): noncompetitive and Non- | Inhibition Type (Substrate) (UGT1A10 [6]; 7-OH warfarin varied): Competitive | Inhibition Type (Substrate) (UGT1A10 [6]; 8-OH warfarin varied): Mixed | Inhibition Type (Substrate) (UGT1A10 [6]; E2 varied): Mixed | Inhibition Type (UDP-GlcUA) (UGT1A10 [6]; 4-MU): Competitive | Inhibition Type (UDP-GlcUA) (UGT1A10 [6]; 7-OH warfarin): Competitive | Inhibition Type (UDP-GlcUA) (UGT1A10 [6]; 8-OH warfarin): Competitive | Inhibition Type (UDP-GlcUA) (UGT1A10 [6]; E2): Mixed | Ki (UGT1A10 [6]; read-out: Kiapp (Substrate), 4-MU varied): 96 µM | Ki (UGT1A10 [6]; read-out: Kiapp (Substrate), 7-OH warfarin varied): 8.5 µM | Ki (UGT1A10 [6]; read-out: Kiapp (Substrate), 8-OH warfarin varied): 27 µM | Ki (UGT1A10 [6]; read-out: Kiapp (Substrate), E2 varied): 200 µM | Ki (UGT1A10 [6]; read-out: Kiapp (UDP-GlcUA), UDP-GlcUA varied, 4-MU): 5.7 µM | Ki (UGT1A10 [6]; read-out: Kiapp (UDP-GlcUA), UDP-GlcUA varied, 7-OH warfarin): 4.1 µM | Ki (UGT1A10 [6]; read-out: Kiapp (UDP-GlcUA), UDP-GlcUA varied, 8-OH warfarin): 26 µM | Ki (UGT1A10 [6]; read-out: Kiapp (UDP-GlcUA), UDP-GlcUA varied, E2): 6.9 µM | Ki (UGT1A10 [6]; read-out: Ki′app (Substrate), 8-OH warfarin varied): 136 µM | Ki (UGT1A10 [6]; read-out: Ki′app (Substrate), E2 varied): 43 µM | Ki (UGT1A10 [6]; read-out: Ki′app (UDP-GlcUA), UDP-GlcUA varied, E2): 23 µM
